Assay results reported in ChEMBL document CHEMBL4418278, “Serine racemase inhibitor” (2014).

The compounds below were run against T1, Serine racemase (Homo sapiens) (UniProt Q9GZT4) (assay: Inhibition of recombinant human SRR expressed in Escherichia coli assessed as reduction in conversion of L-serine to D-serine at 0.1 mM incubated for => 8 hrs in presence of PLP and recombinant D-serine dehydratase 1 by spectrophotometry relative to control).
T1 sequence (whole entry): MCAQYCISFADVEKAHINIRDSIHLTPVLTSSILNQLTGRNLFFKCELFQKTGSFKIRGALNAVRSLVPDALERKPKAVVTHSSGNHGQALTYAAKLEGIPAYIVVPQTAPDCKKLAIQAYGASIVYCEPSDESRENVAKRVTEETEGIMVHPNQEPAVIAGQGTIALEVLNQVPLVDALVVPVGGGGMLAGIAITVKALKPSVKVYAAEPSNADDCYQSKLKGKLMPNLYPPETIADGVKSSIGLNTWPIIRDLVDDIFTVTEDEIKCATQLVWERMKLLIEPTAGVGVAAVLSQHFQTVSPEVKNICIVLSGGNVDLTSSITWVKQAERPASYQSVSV

| SMILES | inhibition |
| --- | --- |
| Cc1ccc(/C=C/S(=O)(=O)NCC(=O)Nc2ccc(OCc3ccccc3)cc2)cc1 | 63% |
| O=C(CNS(=O)(=O)c1ccc(Cl)cc1)Nc1ccccc1Br | 60% |
| Cc1ccc(S(=O)(=O)NCC(=O)OCc2ccccc2)cc1 | 84% |
| Cc1ccc(S(=O)(=O)NCC(=O)Nc2cccc([N+](=O)[O-])c2)cc1 | 62% |
| Cc1ccc(S(=O)(=O)NCC(=O)NNC(=O)Cc2ccc(F)cc2)cc1 | 60% |
| Cc1ccc(S(=O)(=O)NCC(=O)NCc2ccc(Br)cc2F)cc1 | 67% |
| COc1ccc(NC(=O)CNC(=O)COc2ccccc2)c(C)c1 | 87% |
| O=C(Cc1ccc(F)cc1)NNC(=S)NC(=O)Cc1ccc(F)cc1 | 67% |
| O=C(COc1ccc(Br)cc1)NCC(=O)NC1CCCCC1 | 99% |
| Cc1ccc(S(=O)(=O)NCC(=O)N[C@@H](C)c2ccccc2)cc1 | 86% |
| Cc1ccc(S(=O)(=O)NCC(=O)NCc2ccc(Br)cc2)cc1 | 75% |
| O=C(Cc1ccc(F)cc1)NNC(=S)NC(=O)Cc1c(F)cccc1F | 66% |
| COc1ccc(S(=O)(=O)NCC(=O)Nc2cccc(Br)c2)cc1 | 59% |
| Cc1ccc(S(=O)(=O)NCC(=O)Nc2ccc(OCc3ccccc3)cc2)cc1 | 56% |
| O=C(CNS(=O)(=O)Cc1ccccc1)OCc1ccccc1 | 65% |
| C[C@@H](NC(=O)CNS(=O)(=O)Cc1ccccc1)c1ccccc1 | 85% |
| O=C(CNS(=O)(=O)Cc1ccccc1)Nc1c(F)cccc1F | 77% |
| Cc1ccc(S(=O)(=O)NCC(=O)Nc2cccc(Br)c2)cc1 | 52% |
| O=C(O)CC(=O)O | 62 to 110% |
| O=C(Cc1ccc(F)cc1)NNC(=S)NC(=O)CC1CCCCC1 | 67% |
| O=C(CNS(=O)(=O)Cc1ccccc1)Nc1cccc(Br)c1 | 63% |

The compounds below were run against T1, Serine racemase (Homo sapiens) (assay: Inhibition of recombinant human SRR expressed in Escherichia coli assessed as reduction in conversion of L-serine to D-serine at 1 mM incubated for => 8 hrs in presence of PLP and recombinant D-serine dehydratase 1 by spectrophotometry relative to control).

| SMILES | inhibition |
| --- | --- |
| Cc1ccc(S(=O)(=O)NCCNC(=O)Nc2ccc(Cl)cc2Cl)cc1 | 59% |
| COc1cccc(NC(=O)NCCNS(=O)(=O)c2ccc(C)cc2)c1 | 64% |
| COc1ccc(C)cc1NC(=S)NCCNS(=O)(=O)c1ccc(C)cc1 | 63% |
| O=C(/C=C/c1c(F)cc(F)cc1F)NC(=S)NNC(=O)Cc1ccccc1 | 33% |
| COc1ccc(/C=C/C(=O)NC(=S)NNC(=O)Cc2cccs2)c(OC)c1 | 27% |
| Cc1ccc(S(=O)(=O)NCCNC(=O)NS(=O)(=O)c2ccccc2C)cc1 | 62% |
| O=C(/C=C/c1cc(Br)cc(Br)c1)NC(=S)NNC(=O)CCc1ccccc1 | 31% |
| COc1cccc(CC(=O)NNC(=S)NC(=O)/C=C/c2cc(Br)cc(Br)c2)c1 | 31% |
| O=C(/C=C/c1ccc(C(F)(F)F)cc1)NC(=S)NNC(=O)Cc1cccs1 | 44% |
| O=C(/C=C/c1ccc(Cl)cc1)NC(=S)NNC(=O)Cc1cccs1 | 23% |
| Cc1ccc(S(=O)(=O)NCCNC(=S)Nc2ccccc2C)cc1 | 58% |
| O=C(Cc1cccs1)NNC(=S)NC(=O)Cc1ccccc1 | 61% |
| Cc1ccc(/C=C/C(=O)NC(=S)NNC(=O)Cc2cccs2)cc1 | 24% |
| O=C(/C=C/c1cc(Br)cc(Br)c1)NC(=S)NNC(=O)Cc1cccs1 | 28% |
| O=C(/C=C/c1ccc(F)cc1)NC(=S)NNC(=O)Cc1ccccc1 | 45% |
| COc1ccc(S(=O)(=O)NCCNC(=O)Nc2ccc(Cl)c(Cl)c2)cc1 | 61% |
| COc1ccc(NC(=O)CNC(=O)COc2ccccc2)c(C)c1 | 62% |
| O=C(/C=C/c1ccc([N+](=O)[O-])cc1)NC(=S)NNC(=O)Cc1cccs1 | 35% |
| Cc1ccc(S(=O)(=O)NCCNC(=O)Nc2ccccc2)cc1 | 79% |
| O=C(Cc1ccccc1)NNC(=S)NC(=O)Cc1ccccc1 | 41% |
| O=C(/C=C/c1c(Cl)cc(Cl)cc1Cl)NC(=S)NNC(=O)Cc1cccs1 | 33% |
| Cc1ccc(S(=O)(=O)NCCNC(=O)Nc2ccc(Cl)c(Cl)c2)cc1 | 52% |
| COc1cccc(OC)c1/C=C/C(=O)NC(=S)NNC(=O)c1cccs1 | 31% |
| O=C(/C=C/c1ccc(-c2ccccc2)cc1)NC(=S)NNC(=O)Cc1cccs1 | 55% |

| SMILES | inhibition |
| --- | --- |
| Cc1cccc(CC(=O)NNC(=S)NC(=O)/C=C/c2cc(Br)cc(Br)c2)c1 | 24% |
| Cc1ccc(S(=O)(=O)Nc2ccccc2NC(=O)Nc2ccc(Cl)c(Cl)c2)cc1 | 49% |
| Cc1ccc(S(=O)(=O)NCCNC(=S)Nc2ccccc2Cl)cc1 | 69% |
| O=C(CCc1ccccc1)NNC(=S)NC(=O)Cc1ccccc1 | 70% |
| O=C(COc1ccc(Br)cc1)NCC(=O)NC1CCCCC1 | 53% |
| Cc1ccc(S(=O)(=O)Nc2ccccc2NC(=O)Nc2ccc(F)cc2)cc1 | 54% |
| O=C(NCCCNS(=O)(=O)c1ccc(Br)cc1)Nc1ccc(Cl)c(Cl)c1 | 55% |
| O=C(Cc1c(F)cccc1F)NNC(=S)NC(=O)Cc1ccccc1 | 74% |
| O=C(/C=C/c1cc(Br)cc(Br)c1)NC(=S)NNC(=O)c1ccccc1 | 31% |
| O=C(Cc1ccc(F)cc1)NNC(=S)NC(=O)Cc1ccccc1 | 0% |
| O=C(Cc1cc(F)cc(F)c1)NNC(=S)NC(=O)Cc1ccccc1 | 67% |
| O=C(/C=C/c1ccc(F)cc1)NC(=S)NNC(=O)c1cccs1 | 46% |
| COc1cccc(OC)c1/C=C/C(=O)NC(=S)NNC(=O)Cc1ccccc1 | 24% |
| O=C(NCCNS(=O)(=O)c1ccc(Br)cc1)Nc1ccc(Cl)c(Cl)c1 | 49% |
| O=C(/C=C/c1cc(Br)cc(Br)c1)NC(=S)NNC(=O)Cc1ccc(F)cc1 | 49% |
| COc1ccc(S(=O)(=O)NCCCNC(=O)Nc2ccc(Cl)c(Cl)c2)cc1 | 55% |
| O=C(/C=C/c1cc(Br)cc(Br)c1)NC(=S)NNC(=O)Cc1ccccc1 | 20% |
| O=C(O)CC(=O)O | 54 to 85% |
| COc1ccccc1NC(=S)NCCNS(=O)(=O)c1ccc(C)cc1 | 76% |
| O=C(/C=C/c1cc(Br)cc(Br)c1)NC(=S)NNC(=O)c1cccs1 | 52% |
| Cc1cccc(CC(=O)NNC(=S)NC(=O)Cc2ccccc2)c1 | 45% |
| Cc1ccc(S(=O)(=O)NCCNC(=O)Nc2ccc(F)cc2)cc1 | 76% |
| Cc1ccc(S(=O)(=O)NCCNC(=O)Nc2ccc(Br)cc2Cl)cc1 | 57% |
| COCCCNC(=S)NCCNS(=O)(=O)c1ccc(C)cc1 | 86% |
